Reference: patent publication US20230382904A1, “SUBSTITUTED 4-([1,2,4]TRIAZOLO[1,5-a]PYRIDIN-6-YL)THIOPHENE-2-CARBOXAMIDE DERIVATIVES AND USE THEREOF” (The Johns Hopkins University, priority 2020, published 2023)

Tests used:
DLK = DLK (Homo sapiens (Human), UniProt Q12852); test: DLK biochemical assay (TR-FRET, MKK7 phosphorylation)
How it was run: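 TR-FRET ratio (665/Eu) reports MKK7 T275/S277 phosphorylation, lowered by DLK inhibition. Reaction: 60 μM ATP, 15 nM MKK7, 10 nM DLK catalytic domain, 90 min room temperature; detection incubation 16 h, 37° C. (1536-well) or 4° C. (384-well). Final concentrations.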

LZK = LZK (Homo sapiens (Human), UniProt O43283); test: LZK biochemical assay (TR-FRET, MKK7 phosphorylation)
How it was run: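 Readout is the HTRF ratio (XL665/Eu) from an EDTA-containing detection mix of 0.4 nM Eu-anti-phospho-MKK7 (T275/S277) and 20 nM XL665-anti-His, incubated 16 h at 32° C. This followed a 90 min RT reaction of 10 nM LZK catalytic domain, 15 nM MKK7 and 15 μM ATP at pH 7.5.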

Sequence of DLK (Q12852 1-520): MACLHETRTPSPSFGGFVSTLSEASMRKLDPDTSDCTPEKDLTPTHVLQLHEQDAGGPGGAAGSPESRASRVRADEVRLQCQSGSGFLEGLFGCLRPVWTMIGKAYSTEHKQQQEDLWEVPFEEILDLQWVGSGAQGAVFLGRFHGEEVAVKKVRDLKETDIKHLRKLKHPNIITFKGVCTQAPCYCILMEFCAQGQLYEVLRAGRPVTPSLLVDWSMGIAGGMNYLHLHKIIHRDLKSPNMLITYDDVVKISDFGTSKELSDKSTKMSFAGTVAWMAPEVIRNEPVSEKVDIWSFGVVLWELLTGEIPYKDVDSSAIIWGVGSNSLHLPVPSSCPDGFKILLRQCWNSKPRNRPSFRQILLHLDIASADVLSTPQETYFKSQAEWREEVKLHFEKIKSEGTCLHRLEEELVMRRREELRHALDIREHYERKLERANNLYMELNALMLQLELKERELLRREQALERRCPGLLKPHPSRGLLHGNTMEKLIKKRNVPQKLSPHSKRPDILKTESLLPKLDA
Sequence of LZK (O43283 168-409): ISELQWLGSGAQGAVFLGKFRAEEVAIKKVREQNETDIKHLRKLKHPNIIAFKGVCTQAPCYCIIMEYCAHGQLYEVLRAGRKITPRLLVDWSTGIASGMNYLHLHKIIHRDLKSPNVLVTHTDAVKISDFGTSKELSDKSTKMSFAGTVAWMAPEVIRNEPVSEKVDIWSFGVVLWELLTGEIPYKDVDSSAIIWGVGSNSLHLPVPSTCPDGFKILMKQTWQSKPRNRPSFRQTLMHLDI

SMILES | IC50 (DLK) | IC50 (LZK)
Nc1nc2cc(F)c(-c3csc(C(=O)NCc4ccc(F)cc4)c3)cn2n1 [Compound 300] | 1100 nM | 3700 nM
CC(C)C(NC(=O)c1cc(-c2ccc3nc(N)nn3c2)cs1)c1ccc(F)cc1 (stereo not drawn) [Compound 301] | 100 nM | 16500 nM
C[C@H](NC(=O)c1cc(-c2ccc3nc(N)nn3c2)cs1)c1ccc(F)cc1 [Compound 302] | 75.5 nM | 1130 nM
CC(NC(=O)c1cc(-c2ccc3nc(N)nn3c2)cs1)c1ccc(F)cc1 (stereo not drawn) [Compound 303] | 130 nM | 1800 nM
Cc1cccc2oc(CNC(=O)c3cc(-c4ccc5nc(N)nn5c4)cs3)nc12 [Compound 304] | 220 nM | 4300 nM
Cc1sc(C(=O)NCc2ccc(F)cc2)cc1-c1ccc2nc(N)nn2c1 [Compound 305] | > 30000 nM | > 30000 nM
Nc1nc2ccc(-c3csc(C(=O)NC4COc5ccc(F)cc54)c3)cn2n1 (stereo not drawn) [Compound 306] | 130 nM | 2500 nM
Nc1nc2ccc(-c3csc(C(=O)NC4CCc5ccccc54)c3)cn2n1 (stereo not drawn) [Compound 307] | 150 nM | 4500 nM
CC(C)(NC(=O)c1cc(-c2ccc3nc(N)nn3c2)cs1)c1ccc(F)cc1 [Compound 308] | 300 nM | 3000 nM
Nc1nc2ccc(-c3csc(C(=O)NC4(c5ccc(F)cc5)CCC4)c3)cn2n1 [Compound 309] | 120 nM | 6600 nM
Nc1nc2ccc(-c3csc(C(=O)NC4(c5ccc(F)cc5)CCCC4)c3)cn2n1 [Compound 310] | 51 nM | 17000 nM
COc1cccc(CNC(=O)c2cc(-c3ccc4nc(N)nn4c3)c(C)s2)c1 [Compound 311] | 19000 nM | > 30000 nM
Cc1sc(C(=O)NC2CCCCC2)cc1-c1ccc2nc(N)nn2c1 [Compound 312] | > 30000 nM | > 30000 nM
Cc1sc(C(=O)NCc2nc3ccccc3o2)cc1-c1ccc2nc(N)nn2c1 [Compound 313] | 24000 nM | > 30000 nM
Nc1nc2ccc(-c3csc(C(=O)NC4(c5ccc(F)cc5)COC4)c3)cn2n1 [Compound 314] | 530 nM | 7000 nM
Nc1nc2ccc(-c3csc(C(=O)NC4CCOc5ccc(F)cc54)c3)cn2n1 (stereo not drawn) [Compound 315] | 130 nM | 4800 nM
CC1(C)CC(NC(=O)c2cc(-c3ccc4nc(N)nn4c3)cs2)c2ccccc2O1 (stereo not drawn) [Compound 316] | 180 nM | 4700 nM
Nc1nc2ccc(-c3csc(C(=O)NC4CCOc5ccccc54)c3)cn2n1 (stereo not drawn) [Compound 317] | 97 nM | 3600 nM

SMILES | IC50 (DLK) | IC50 (LZK)
Nc1nc2ccc(-c3csc(C(=O)NC4CCCc5cc(F)ccc54)c3)cn2n1 (stereo not drawn) [Compound 318] | 130 nM | 1700 nM
CC[C@H](NC(=O)c1cc(-c2ccc3nc(N)nn3c2)cs1)c1ccc(F)cc1 [Compound 319] | 120 nM | 1700 nM
Cc1sc(C(=O)NCc2ccccc2)cc1-c1ccc2nc(N)nn2c1 [Compound 320] | > 30000 nM | > 30000 nM
CCC[C@H](NC(=O)c1cc(-c2ccc3nc(N)nn3c2)cs1)c1ccccc1 [Compound 321] | 67 nM | 3700 nM
COC[C@H](NC(=O)c1cc(-c2ccc3nc(N)nn3c2)cs1)c1ccccc1 [Compound 322] | 120 nM | 1400 nM
C[C@H](NC(=O)c1cc(-c2ccc3nc(N)nn3c2)cs1)c1ccccc1 [Compound 323] | 164 nM | 2950 nM
CC[C@H](NC(=O)c1cc(-c2ccc3nc(N)nn3c2)cs1)c1ccccc1 [Compound 324] | 62 nM | 1600 nM
C[C@@H](NC(=O)c1cc(-c2ccc3nc(N)nn3c2)cs1)c1ccccc1 [Compound 325] | 280 nM | > 30000 nM
Nc1nc2ccc(-c3csc(C(=O)N[C@H](c4ccccc4)C(F)(F)F)c3)cn2n1 [Compound 326] | 255 nM | > 30000 nM
Nc1nc2ccc(-c3csc(C(=O)NC(c4ccccc4)C4CC4)c3)cn2n1 (stereo not drawn) [Compound 327] | 42 nM | 6100 nM
Nc1nc2ccc(-c3csc(C(=O)NCc4ccc(CN5CCCC5=O)cc4)c3)cn2n1 [Compound 328] | 400 nM | 8200 nM
CCN(CC)Cc1ccc(CNC(=O)c2cc(-c3ccc4nc(N)nn4c3)cs2)cc1 [Compound 329] | 740 nM | 21000 nM
CC(NC(=O)c1cc(-c2ccc3nc(N)nn3c2)cs1)c1cnn(C)c1 (stereo not drawn) [Compound 330] | 640 nM | 12000 nM
CCn1ccc(C(C)NC(=O)c2cc(-c3ccc4nc(N)nn4c3)cs2)n1 (stereo not drawn) [Compound 331] | 910 nM | 13000 nM
CC(NC(=O)c1cc(-c2ccc3nc(N)nn3c2)cs1)c1nc2c(s1)CCCC2 (stereo not drawn) [Compound 332] | 150 nM | 3100 nM
CC(NC(=O)c1cc(-c2ccc3nc(N)nn3c2)cs1)c1cn[nH]c1 (stereo not drawn) [Compound 333] | 490 nM | 6800 nM
Cc1nc(C(C)NC(=O)c2cc(-c3ccc4nc(N)nn4c3)cs2)sc1C (stereo not drawn) [Compound 334] | 400 nM | 5800 nM

Second part, the compound after the results:

IC50 (DLK) | IC50 (LZK) | SMILES
140 nM | 3500 nM | CC(NC(=O)c1cc(-c2ccc3nc(N)nn3c2)cs1)c1nc2ccccc2n1C (stereo not drawn) [Compound 335]
290 nM | > 30000 nM | Nc1nc2ccc(-c3csc(C(=O)NC(c4ccc(F)cc4)C(F)(F)F)c3)cn2n1 (stereo not drawn) [Compound 336]
480 nM | 1400 nM | Nc1nc2ccc(-c3csc(C(=O)NC(CO)c4ccc(F)cc4)c3)cn2n1 (stereo not drawn) [Compound 337]
190 nM | > 30000 nM | CCC(NC(=O)c1cc(-c2ccc3nc(N)nn3c2)cs1)c1ccc(F)cc1 (stereo not drawn) [Compound 338]
2300 nM | > 30000 nM | COC[C@H](C)NC(=O)c1cc(-c2ccc3nc(N)nn3c2)cs1 [Compound 339]
4300 nM | > 30000 nM | Nc1nc2ccc(-c3csc(C(=O)NC4COC4)c3)cn2n1 [Compound 340]
230 nM | 5100 nM | Nc1nc2ccc(-c3csc(C(=O)N[C@@H](CCO)c4ccc(F)cc4)c3)cn2n1 [Compound 341]
520 nM | 17000 nM | Nc1nc2ccc(-c3csc(C(=O)NCc4ccc(CN5CCOCC5)cc4)c3)cn2n1 [Compound 342]
860 nM | 27000 nM | CN1CCN(Cc2ccc(CNC(=O)c3cc(-c4ccc5nc(N)nn5c4)cs3)cc2)CC1 [Compound 343]
470 nM | 21000 nM | Nc1nc2ccc(-c3csc(C(=O)NCc4ccc(CN5CCCC5)cc4)c3)cn2n1 [Compound 344]
2300 nM | > 30000 nM | C[C@@H](CO)NC(=O)c1cc(-c2ccc3nc(N)nn3c2)cs1 [Compound 345]
79 nM | 29000 nM | Nc1nc2ccc(-c3csc(C(=O)NC(c4ccccc4)C4CC4)c3)cn2n1 (stereo not drawn) [Compound 346]
130 nM | > 30000 nM | Nc1nc2ccc(-c3csc(C(=O)NC(c4ccccc4)C4CC4)c3)cn2n1 (stereo not drawn) [Compound 347]
30000 nM | 30000 nM | CC(NC(=O)c1cc(-c2ccc3nc(N)nn3c2)cs1)c1ccc(C(C)(C)C)cc1 (stereo not drawn) [Compound 348]
230 nM | 24000 nM | Cc1ccc([C@H](C)NC(=O)c2cc(-c3ccc4nc(N)nn4c3)cs2)cc1 [Compound 349]
760 nM | 20500 nM | CC(NC(=O)c1cc(-c2ccc3nc(N)nn3c2)cs1)c1nccn1C (stereo not drawn) [Compound 350]

IC50 (DLK) | IC50 (LZK) | SMILES
6400 nM | 20000 nM | Cc1c(-c2ccc3nc(N)nn3c2)csc1C(=O)N[C@@H](C)c1ccc(F)cc1 [Compound 351]
1000 nM | > 30000 nM | Cc1c(-c2ccc3nc(N)nn3c2)csc1C(=O)NCc1ccc(F)cc1 [Compound 352]
210 nM | > 30000 nM | C[C@H](NC(=O)c1cc(-c2ccc3nc(N)nn3c2)cs1)c1ccc(C(F)(F)F)cc1 [Compound 353]
110 nM | > 30000 nM | COc1ccc([C@H](C)NC(=O)c2cc(-c3ccc4nc(N)nn4c3)cs2)cc1 [Compound 354]
210 nM | > 30000 nM | C[C@H](NC(=O)c1cc(-c2ccc3nc(N)nn3c2)cs1)c1ccc(Cl)cc1 [Compound 355]
310 nM | > 30000 nM | C[C@H](NC(=O)c1cc(-c2ccc3nc(N)nn3c2)cs1)c1ccc(OC(F)(F)F)cc1 [Compound 356]
210 nM | > 30000 nM | CC(NC(=O)c1cc(-c2ccc3nc(N)nn3c2)cs1)c1ccc(OCC(F)F)cc1 (stereo not drawn) [Compound 357]
110 nM | 1200 nM | C[C@H](NC(=O)c1cc(-c2ccc3nc(N)nn3c2)cs1)c1nc2ccccc2o1 [Compound 358]
160 nM | > 30000 nM | C[C@H](NC(=O)c1cc(-c2ccc3nc(N)nn3c2)cs1)c1ccccc1F [Compound 359]
400 nM | > 30000 nM | CC(NC(=O)c1cc(-c2ccc3nc(N)nn3c2)cs1)c1ccc(F)cc1F (stereo not drawn) [Compound 360]
1900 nM | > 30000 nM | CC(NC(=O)c1cc(-c2ccc3nc(N)nn3c2)cs1)c1ccc(OC(F)(F)F)cc1 (stereo not drawn) [Compound 361]
8200 nM | 23000 nM | C[C@H](NC(=O)c1cc(-c2ccc3nc(N)nn3c2)c(F)s1)c1ccc(F)cc1 [Compound 362]
640 nM | 8700 nM | Nc1nc2cc(-c3csc(C(=O)NCc4ccc(F)cc4)c3)ccn2n1 [Compound 363]
400 nM | 19000 nM | COc1cccc(CNC(=O)c2cc(-c3ccn4nc(N)nc4c3)cs2)c1 [Compound 364]
500 nM | 11000 nM | Nc1nc2cc(-c3csc(C(=O)NCc4ccccc4)c3)ccn2n1 [Compound 365]
